# Source: patent US9950048B2, “Immunogenic epitopes for immunotherapy” (immatics biotechnologies GmbH, priority 2007, dated 2018)
# Ends that are not written are not given here.
# Experiments:
# [1] = Particle size/shape measurement and analytical HPLC of reconstituted IMA910 suspension; format: physicochemical; settings: sodium hydrogen carbonate (4.2%)
# Protocol: Particle size distribution and particle shape measurement of the particles obtained after reconstitution have been performed by capturing direct images of each individual particle in the range of 0.25 to 100 μm followed by image analysis.
# Furthermore, analytical HPLC was performed for a closer characterization of the obtained suspension.
# IMA910 is dissolved in 700 μL sodium hydrogen carbonate (4.2%).
# [2] = molecular target: HLA-A*0201 (Homo sapiens, UniProt P04439, D140Y/D185E/D98H/E176V/E277Q/G131W/G231S/I119V/I121R/I166T/I218V/L300P/L318F/N151K/N90K/P208A/P217A/Q86G/Q94H/R138H/R169H/T345S); assay: HLA-A*0201 binding assay, ELISA EpI Kit (Example 4); settings: for binding affinity to HLA-A*0201 (KD), in words: FIG. 4, lower KD = higher affinity
# Protocol: FIG. 4 depicts binding affinities of selected peptides to HLA-A*0201 as measured by EpI ELISA according to Sylvester-Hvid, C, et al., 2002, Tissue Antigens, 59, 251-258). The analysis was limited to peptides known to be MHC class I binding peptides. Affinities of HLA-DR binding peptides cannot be measured with this assay.
# The HLA binding assay was performed using the ELISA EpI Kit (obtained from Sceren Buus, Institute of Medical Microbiology and Immunology at the University of Copenhagen, Denmark) according to Sylvester-Hvid (Sylvester-Hvid, at al., 2002, Tissue Antigens, 59, 251-258) and the ELISA EpI Kit manual by the manufacturer.
# Peptides were dissolved in DMSO+0.5% TFA (Merck, Darmstadt, Germany) at a concentration of 10 mg/ml. The highest peptide working solution used in this assay was 200 μM, therefore the stock solution was diluted 1:50 in a peptide-dilution buffer (PBS with 0.1% Lutrol-F68 and 10 mg/1 Phenol red) to a final volume of 100 μl. A serial five-fold dilution was performed with peptide-dilution buffer.
# According to the manual, a 2-fold concentrated HLA-A*0201 solution was prepared by mixing 3×pH buffer (pH 6.6), Lutrol-F68, human β2m, recombinant HLA-A*0201 (all included in the ELISA EpI Kit) with PBS.
# For the refolding process, 15 μl of peptide serial dilutions and 15 μl of the 2-fold concentrated MHC mix were mixed in 96-well plates (Nunc, Rochester, N.Y., USA) and incubated at 18° C. for 48 hours.
# Maxisorp plates (Nunc, Rochester, N.Y.) were coated with 5 μg/ml w6/32 antibody in coating buffer (pH 9.6), incubated for 24 h at 4° C. and blocked with 5% skim milk powder (Merck, Darmstadt, Germany) in PBS over night at 4° C.
# MHC complex standard (ELISA EpI Kit) was diluted with 2% skim milk powder in PBS (SMP/PBS) to a concentration of 10 nM. A serial 3.16-fold dilution was prepared and transferred to the coated and blocked Maxisorp plate. […] Plates were read at OD450 nm using the VERSAmax ELISA-Reader (Molecular Devices, Sunnyvale, Calif., USA). […]
# [3] = system: sorted CD8+ NOX-001 tetramer+ T-cell line; assay: IFNγ ELISPOT functionality test of sorted specific CD8+ T-cell line; format: cell-based, human; settings: FIG. 8
# Protocol: FIGS. 8A and 8B depict the ELISPOT analysis of IFNγ production by T-cell lines upon in vitro restimulation with the NOX-001 peptide. FIG. 8A is T-cell line 7+ from donor HBC-154 (sorted CD8+ NOX-001 tetramer+). FIG. 8B is T-cell line 7—from donor HBC-154 (sorted CD8+ NOX-001 tetramer+).
# Sorted CD8+ NOX-001 tetramer+(A.) and CD8+ NOX-001 tetramer-(B.) cells were analysed by IFNγ ELISPOT after restimulation with irrelevant (MLA-001) (upper wells) and relevant (NOX-001) (lower wells) peptide (10 μg/ml). Numbers indicate the count of positive spots.
# To determine their functionality, IFNγ production was assessed by ELISPOT (IFNγ ELISPOT Set, BD, Germany) after restimulation of the cells with the corresponding peptide. Additionally, cell-mediated cytotoxicity of specific CTLs was investigated by killing of tumor cell lines using the LIVE/DEAD cell-mediated cytotoxicity Kit (L7010, Invitrogen, Germany). Both assays were performed according to manufacturer's instructions, except noted otherwise.
Sequence,solubility in the solution used for reconstitution of IMA910 [1],fold lower KD value compared with the majority of peptides ([2]; FIG. 4) [fold],"binding affinity to HLA-A*0201 (KD), in words [2]",IFNγ production of T-cell line after restimulation with peptide [3]
ALFVRLLALA [TGFBI-001],almost insoluble,100,strongest binder,–
ILAPVILYI [NOX-001],almost insoluble,–,slightly higher binding affinity,specifically expressing IFNγ after restimulation with this peptide
